# Measured values published in paper PMC9841527 (Journal of Medicinal Chemistry, 2022).
# How the values were obtained:
# G9a = biological target: T1, G9a (Homo sapiens, UniProt Q96KQ7); test: Selectivity assay, G9a; type: biochemical; details: compound 10 μM, 3H-SAM 1 μM
# T1 sequence (Q96KQ7 1-1210): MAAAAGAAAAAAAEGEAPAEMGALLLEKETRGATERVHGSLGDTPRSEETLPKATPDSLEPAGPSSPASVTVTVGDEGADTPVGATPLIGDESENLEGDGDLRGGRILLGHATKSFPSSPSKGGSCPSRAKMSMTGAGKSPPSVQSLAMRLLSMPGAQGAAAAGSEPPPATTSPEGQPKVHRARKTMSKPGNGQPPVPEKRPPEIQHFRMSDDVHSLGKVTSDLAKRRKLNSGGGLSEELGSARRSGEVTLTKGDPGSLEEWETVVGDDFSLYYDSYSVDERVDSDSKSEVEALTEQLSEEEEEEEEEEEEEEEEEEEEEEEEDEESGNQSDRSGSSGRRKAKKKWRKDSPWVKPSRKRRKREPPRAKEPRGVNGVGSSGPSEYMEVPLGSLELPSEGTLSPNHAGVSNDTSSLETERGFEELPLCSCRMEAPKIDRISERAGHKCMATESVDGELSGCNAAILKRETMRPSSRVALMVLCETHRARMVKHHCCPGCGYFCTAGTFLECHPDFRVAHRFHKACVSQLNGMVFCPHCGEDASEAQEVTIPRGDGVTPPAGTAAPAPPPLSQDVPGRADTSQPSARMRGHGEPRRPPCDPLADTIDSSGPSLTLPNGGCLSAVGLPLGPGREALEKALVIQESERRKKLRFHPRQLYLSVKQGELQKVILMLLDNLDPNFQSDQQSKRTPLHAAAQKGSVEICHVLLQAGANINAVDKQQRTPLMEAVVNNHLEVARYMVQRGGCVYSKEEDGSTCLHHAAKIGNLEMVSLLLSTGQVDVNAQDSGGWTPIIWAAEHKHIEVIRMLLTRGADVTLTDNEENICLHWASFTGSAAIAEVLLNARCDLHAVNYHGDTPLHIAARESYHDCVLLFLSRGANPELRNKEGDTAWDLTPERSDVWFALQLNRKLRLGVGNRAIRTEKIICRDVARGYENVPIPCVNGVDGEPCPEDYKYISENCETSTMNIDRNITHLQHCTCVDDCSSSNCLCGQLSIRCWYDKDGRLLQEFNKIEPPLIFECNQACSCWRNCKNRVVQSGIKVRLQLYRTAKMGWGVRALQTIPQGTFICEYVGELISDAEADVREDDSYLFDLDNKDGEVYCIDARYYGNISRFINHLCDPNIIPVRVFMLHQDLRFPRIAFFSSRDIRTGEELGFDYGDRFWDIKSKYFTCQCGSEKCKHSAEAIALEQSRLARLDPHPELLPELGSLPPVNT
# [1] = biological target: T2, A1 adenosine receptor (A1AR) (Homo sapiens, UniProt P30542); test: A1AR agonist radioligand binding assay; details: compound 10 μM, [3H]CCPA 1 nM, transfected CHO cell membranes
# T2 sequence (P30542 1-326): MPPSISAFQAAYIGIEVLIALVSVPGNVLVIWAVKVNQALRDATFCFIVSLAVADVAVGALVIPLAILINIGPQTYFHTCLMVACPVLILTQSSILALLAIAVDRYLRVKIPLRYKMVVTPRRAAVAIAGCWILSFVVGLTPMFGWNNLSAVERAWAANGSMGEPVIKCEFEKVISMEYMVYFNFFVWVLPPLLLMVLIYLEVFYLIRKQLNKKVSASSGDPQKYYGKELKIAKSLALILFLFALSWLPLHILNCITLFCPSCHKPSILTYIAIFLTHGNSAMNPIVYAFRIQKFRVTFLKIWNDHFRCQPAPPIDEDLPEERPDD
Structure (SMILES),inhibition of G9a (G9a),"inhibition of control radioligand specific binding, A1AR [1]"
"OC[C@H]1O[C@@H](n2cnc3c(NCCCc4ccc(O)cc4)ncnc32)[C@H](O)[C@@H]1O [Compound 16, (2R,3S,4R,5R)-2-(Hydroxymethyl)-5-(6-((3-(4-hydroxyphenyl)propyl)amino)-9H-purin-9-yl)tetrahydrofuran-3,4-diol]",none of them showed any significant inhibition,minimal inhibition of specific binding
"CC(C)(C)OC(=O)N1CCC(CCCNc2ncnc3c2ncn3[C@@H]2O[C@H](CO)[C@@H](O)[C@H]2O)CC1 [Compound 39, tert-Butyl-4-(3-((9-((2R,3R,4S,5R)-3,4-dihydroxy-5-(hydroxymethyl)tetrahydrofuran-2-yl)-9H-purin-6-yl)amino)propyl)piperidine-1-carboxylate]",none of them showed any significant inhibition,minimal inhibition of specific binding
